# Experimental data as given in US20110028566A1, “COMPOSITIONS AND PRODUCTS CONTAINING CYCLOALIPHATIC DIOL ANTIMICROBIAL AGENTS AND METHODS OF USING THE COMPOSITIONS AND PRODUCTS” (EASTMAN CHEMICAL COMPANY, priority 2009, published 2011).
# Columns and labels:
# Assay in all cases: Microbial challenge testing in BPW
# Type in all cases: cell-based
# [1] = test system: Proteus vulgaris; settings: BPW, w/v % in label, average of replicates; for Grade code, P. vulgaris, 3 Days: 3 days incubation; for Grade code, P. vulgaris, 13 Days: 13 days incubation; for Grade code, P. vulgaris, 30 Day: 30 days incubation
# In short: (§1)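 Each organism, grown in TSB with 1% dextrose 96 h or more at 35 °C, was inoculated to 10^5–10^6 cfu/mL into BPW (pH 7.0, 1% dextrose) containing test materials at set w/v %. Broth-alone controls were run. Tubes were held 14 days at 35 °C, then at room temperature.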
# [2] = test system: Pseudomonas aeruginosa; settings: for Grade code, P. aeruginosa, 3 Days / Grade code, P. aeruginosa, 13 Days / Grade code, P. aeruginosa, 30 Days: BPW, w/v % in label, average of replicates
# In short: as §1
# [3] = test system: Staphylococcus aureus; settings: for Grade code, S. aureus, 3 Day / Grade code, S. aureus, 14 Day / Grade code, S. aureus, 30 Day: BPW, w/v % in label, average of replicates
# In short: as §1
# [4] = test system: Staphylococcus epidermidis; settings: for Grade code, S. epidermidis, 3 Days / Grade code, S. epidermidis, 13 Days / Grade code, S. epidermidis, 30 Days: BPW, w/v % in label, average of replicates
# In short: as §1
# [5] = test system: Streptococcus mutans; settings: for Grade code, S. mutans, 3 Day / Grade code, S. mutans, 13 Day / Grade code, S. mutans, 30 Days: BPW, w/v % in label, average of replicates
# In short: as §1
# [6] = 3 days incubation, listed as 0.5% AB
# [7] = 3 days incubation, listed as 1.25% AB
# [8] = 3 days incubation, listed as 2.5% AB
# [9] = 13 days incubation, listed as 0.5% AB
# [10] = 13 days incubation, listed as 1.25% AB
# [11] = 13 days incubation, listed as 2.5% AB
# [12] = 30 days incubation, listed as 0.5% AB
# [13] = 30 days incubation, listed as 1.25% AB
# [14] = 30 days incubation, listed as 2.5% AB
smiles,measurement,setting,value
"OCC1CCC(CO)CC1 (stereo not drawn) [1,4-CHDM, 1,4-cyclohexanedimethanol]","Grade code, P. vulgaris, 3 Days",[1]; listed as 0.5% AB,"4 (1001 to 10,000 colonies (thus 10,000 cfu/mL to 100,000 cfu/mL))"
same,"Grade code, P. vulgaris, 3 Days",[1]; listed as 1.25% AB,"3 (101 to 1000 colonies (thus 1000 to 10,000 cfu/mL))"
same,"Grade code, P. vulgaris, 3 Days",[1]; listed as 2.5% AB,1 (1 to 51 colonies counted (thus 10 to 510 cfu/mL))
same,"Grade code, P. vulgaris, 13 Days",[1]; listed as 0.5% AB,"4 (1001 to 10,000 colonies (thus 10,000 cfu/mL to 100,000 cfu/mL))"
same,"Grade code, P. vulgaris, 13 Days",[1]; listed as 1.25% AB,2 (52 to 100 colonies counted (thus 520 to 1000 cfu/mL))
same,"Grade code, P. vulgaris, 13 Days",[1]; listed as 2.5% AB,0 (No growth detected or <1 colony (thus <10 cfu/mL))
same,"Grade code, P. vulgaris, 30 Day",[1]; listed as 0.5% AB,"4 (1001 to 10,000 colonies (thus 10,000 cfu/mL to 100,000 cfu/mL))"
same,"Grade code, P. vulgaris, 30 Day",[1]; listed as 1.25% AB,0 (No growth detected or <1 colony (thus <10 cfu/mL))
same,"Grade code, P. vulgaris, 30 Day",[1]; listed as 2.5% AB,0 (No growth detected or <1 colony (thus <10 cfu/mL))
same,Grade code P. aeruginosa,"[2]; 0.5%, 3 days incubation","4 (1001 to 10,000 colonies (thus 10,000 cfu/mL to 100,000 cfu/mL))"
same,Grade code P. aeruginosa,"[2]; 0.5%, 13 days incubation","4 (1001 to 10,000 colonies (thus 10,000 cfu/mL to 100,000 cfu/mL))"
same,Grade code P. aeruginosa,"[2]; 0.5%, 30 days incubation","4 (1001 to 10,000 colonies (thus 10,000 cfu/mL to 100,000 cfu/mL))"
same,Grade code P. aeruginosa,"[2]; 1.25%, 3 days incubation","4 (1001 to 10,000 colonies (thus 10,000 cfu/mL to 100,000 cfu/mL))"
same,Grade code P. aeruginosa,"[2]; 1.25%, 13 days incubation","3 (101 to 1000 colonies (thus 1000 to 10,000 cfu/mL))"
same,Grade code P. aeruginosa,"[2]; 1.25%, 30 days incubation","4 (1001 to 10,000 colonies (thus 10,000 cfu/mL to 100,000 cfu/mL))"
same,Grade code P. aeruginosa,"[2]; 2.5%, 3 days incubation","3 (101 to 1000 colonies (thus 1000 to 10,000 cfu/mL))"
same,Grade code P. aeruginosa,"[2]; 2.5%, 13 days incubation",2 (52 to 100 colonies counted (thus 520 to 1000 cfu/mL))
same,Grade code P. aeruginosa,"[2]; 2.5%, 30 days incubation",0 (No growth detected or <1 colony (thus <10 cfu/mL))
same,"Grade code, P. aeruginosa, 3 Days",[2]; [6],"4 (1001 to 10,000 colonies (thus 10,000 cfu/mL to 100,000 cfu/mL))"
same,"Grade code, P. aeruginosa, 3 Days",[2]; [7],"4 (1001 to 10,000 colonies (thus 10,000 cfu/mL to 100,000 cfu/mL))"
same,"Grade code, P. aeruginosa, 3 Days",[2]; [8],"3 (101 to 1000 colonies (thus 1000 to 10,000 cfu/mL))"
same,"Grade code, P. aeruginosa, 13 Days",[2]; [9],"4 (1001 to 10,000 colonies (thus 10,000 cfu/mL to 100,000 cfu/mL))"
same,"Grade code, P. aeruginosa, 13 Days",[2]; [10],"3 (101 to 1000 colonies (thus 1000 to 10,000 cfu/mL))"
same,"Grade code, P. aeruginosa, 13 Days",[2]; [11],2 (52 to 100 colonies counted (thus 520 to 1000 cfu/mL))
same,"Grade code, P. aeruginosa, 30 Days",[2]; [12],"4 (1001 to 10,000 colonies (thus 10,000 cfu/mL to 100,000 cfu/mL))"
same,"Grade code, P. aeruginosa, 30 Days",[2]; [13],"4 (1001 to 10,000 colonies (thus 10,000 cfu/mL to 100,000 cfu/mL))"
same,"Grade code, P. aeruginosa, 30 Days",[2]; [14],0 (No growth detected or <1 colony (thus <10 cfu/mL))
same,Grade code S. aureus,"[3]; 0.5%, 3 days incubation","4 (1001 to 10,000 colonies (thus 10,000 cfu/mL to 100,000 cfu/mL))"
same,Grade code S. aureus,"[3]; 0.5%, 14 days incubation","4 (1001 to 10,000 colonies (thus 10,000 cfu/mL to 100,000 cfu/mL))"
same,Grade code S. aureus,"[3]; 0.5%, 30 days incubation","4 (1001 to 10,000 colonies (thus 10,000 cfu/mL to 100,000 cfu/mL))"
same,Grade code S. aureus,"[3]; 1.25%, 3 days incubation","3 (101 to 1000 colonies (thus 1000 to 10,000 cfu/mL))"
same,Grade code S. aureus,"[3]; 1.25%, 14 days incubation",2.7
same,Grade code S. aureus,"[3]; 1.25%, 30 days incubation","4 (1001 to 10,000 colonies (thus 10,000 cfu/mL to 100,000 cfu/mL))"
same,Grade code S. aureus,"[3]; 2.5%, 3 days incubation",1.7
same,Grade code S. aureus,"[3]; 2.5%, 14 days incubation",1 (1 to 51 colonies counted (thus 10 to 510 cfu/mL))
same,Grade code S. aureus,"[3]; 2.5%, 30 days incubation",0 (No growth detected or <1 colony (thus <10 cfu/mL))
same,"Grade code, S. aureus, 3 Day",[3]; [6],"4 (1001 to 10,000 colonies (thus 10,000 cfu/mL to 100,000 cfu/mL))"
same,"Grade code, S. aureus, 3 Day",[3]; [7],"3 (101 to 1000 colonies (thus 1000 to 10,000 cfu/mL))"
same,"Grade code, S. aureus, 3 Day",[3]; [8],1.7
same,"Grade code, S. aureus, 14 Day","[3]; 14 days incubation, listed as 0.5% AB","4 (1001 to 10,000 colonies (thus 10,000 cfu/mL to 100,000 cfu/mL))"
same,"Grade code, S. aureus, 14 Day","[3]; 14 days incubation, listed as 1.25% AB",2.7
same,"Grade code, S. aureus, 14 Day","[3]; 14 days incubation, listed as 2.5% AB",1 (1 to 51 colonies counted (thus 10 to 510 cfu/mL))
same,"Grade code, S. aureus, 30 Day",[3]; [12],"4 (1001 to 10,000 colonies (thus 10,000 cfu/mL to 100,000 cfu/mL))"
same,"Grade code, S. aureus, 30 Day",[3]; [13],"4 (1001 to 10,000 colonies (thus 10,000 cfu/mL to 100,000 cfu/mL))"
same,"Grade code, S. aureus, 30 Day",[3]; [14],0 (No growth detected or <1 colony (thus <10 cfu/mL))
same,Grade code S. epidermidis,"[4]; 0.5%, 3 days incubation","4 (1001 to 10,000 colonies (thus 10,000 cfu/mL to 100,000 cfu/mL))"
same,Grade code S. epidermidis,"[4]; 0.5%, 13 days incubation","4 (1001 to 10,000 colonies (thus 10,000 cfu/mL to 100,000 cfu/mL))"
same,Grade code S. epidermidis,"[4]; 0.5%, 30 days incubation","4 (1001 to 10,000 colonies (thus 10,000 cfu/mL to 100,000 cfu/mL))"
same,Grade code S. epidermidis,"[4]; 1.25%, 3 days incubation",2 (52 to 100 colonies counted (thus 520 to 1000 cfu/mL))
same,Grade code S. epidermidis,"[4]; 1.25%, 13 days incubation",0.7
same,Grade code S. epidermidis,"[4]; 1.25%, 30 days incubation",2 (52 to 100 colonies counted (thus 520 to 1000 cfu/mL))
same,Grade code S. epidermidis,"[4]; 2.5%, 3 days incubation",0.7
same,Grade code S. epidermidis,"[4]; 2.5%, 13 days incubation",0 (No growth detected or <1 colony (thus <10 cfu/mL))
same,Grade code S. epidermidis,"[4]; 2.5%, 30 days incubation",0 (No growth detected or <1 colony (thus <10 cfu/mL))
same,"Grade code, S. epidermidis, 3 Days",[4]; [6],"4 (1001 to 10,000 colonies (thus 10,000 cfu/mL to 100,000 cfu/mL))"
same,"Grade code, S. epidermidis, 3 Days",[4]; [7],2 (52 to 100 colonies counted (thus 520 to 1000 cfu/mL))
same,"Grade code, S. epidermidis, 3 Days",[4]; [8],0.7
same,"Grade code, S. epidermidis, 13 Days",[4]; [9],"4 (1001 to 10,000 colonies (thus 10,000 cfu/mL to 100,000 cfu/mL))"
same,"Grade code, S. epidermidis, 13 Days",[4]; [10],0.7
same,"Grade code, S. epidermidis, 13 Days",[4]; [11],0 (No growth detected or <1 colony (thus <10 cfu/mL))
same,"Grade code, S. epidermidis, 30 Days",[4]; [12],"4 (1001 to 10,000 colonies (thus 10,000 cfu/mL to 100,000 cfu/mL))"
same,"Grade code, S. epidermidis, 30 Days",[4]; [13],2 (52 to 100 colonies counted (thus 520 to 1000 cfu/mL))
same,"Grade code, S. epidermidis, 30 Days",[4]; [14],0 (No growth detected or <1 colony (thus <10 cfu/mL))
same,Grade code S. mutans,"[5]; 0.5%, 3 days incubation","4 (1001 to 10,000 colonies (thus 10,000 cfu/mL to 100,000 cfu/mL))"
same,Grade code S. mutans,"[5]; 0.5%, 13 days incubation","4 (1001 to 10,000 colonies (thus 10,000 cfu/mL to 100,000 cfu/mL))"
same,Grade code S. mutans,"[5]; 0.5%, 30 days incubation","4 (1001 to 10,000 colonies (thus 10,000 cfu/mL to 100,000 cfu/mL))"
same,Grade code S. mutans,"[5]; 1.25%, 3 days incubation","4 (1001 to 10,000 colonies (thus 10,000 cfu/mL to 100,000 cfu/mL))"
same,Grade code S. mutans,"[5]; 1.25%, 13 days incubation",2 (52 to 100 colonies counted (thus 520 to 1000 cfu/mL))
same,Grade code S. mutans,"[5]; 1.25%, 30 days incubation",2 (52 to 100 colonies counted (thus 520 to 1000 cfu/mL))
same,Grade code S. mutans,"[5]; 2.5%, 3 days incubation",2 (52 to 100 colonies counted (thus 520 to 1000 cfu/mL))
same,Grade code S. mutans,"[5]; 2.5%, 13 days incubation",0 (No growth detected or <1 colony (thus <10 cfu/mL))
same,Grade code S. mutans,"[5]; 2.5%, 30 days incubation",0 (No growth detected or <1 colony (thus <10 cfu/mL))
same,"Grade code, S. mutans, 3 Day",[5]; [6],"4 (1001 to 10,000 colonies (thus 10,000 cfu/mL to 100,000 cfu/mL))"
same,"Grade code, S. mutans, 3 Day",[5]; [7],"4 (1001 to 10,000 colonies (thus 10,000 cfu/mL to 100,000 cfu/mL))"
same,"Grade code, S. mutans, 3 Day",[5]; [8],2 (52 to 100 colonies counted (thus 520 to 1000 cfu/mL))
same,"Grade code, S. mutans, 13 Day",[5]; [9],"4 (1001 to 10,000 colonies (thus 10,000 cfu/mL to 100,000 cfu/mL))"
same,"Grade code, S. mutans, 13 Day",[5]; [10],2 (52 to 100 colonies counted (thus 520 to 1000 cfu/mL))
same,"Grade code, S. mutans, 13 Day",[5]; [11],0 (No growth detected or <1 colony (thus <10 cfu/mL))
same,"Grade code, S. mutans, 30 Days",[5]; [12],"4 (1001 to 10,000 colonies (thus 10,000 cfu/mL to 100,000 cfu/mL))"
same,"Grade code, S. mutans, 30 Days",[5]; [13],2 (52 to 100 colonies counted (thus 520 to 1000 cfu/mL))
same,"Grade code, S. mutans, 30 Days",[5]; [14],0 (No growth detected or <1 colony (thus <10 cfu/mL))
